Measured values as given in PubChem BioAssay (NCI).
Where “and” joins values, the source holds several entries; their conditions need not be identical. Equal values may be shown once.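 Five concentrations, 48 hours, 96-well plates. GI50 = concentration required for 50% inhibition of growth. TGI denotes the concentration required for complete inhibition of growth.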

Columns and labels:
Experiment in all cases: NCI anticancer screen, dose series, 48 h
SK-MEL-28 melanoma = tested on: SK-MEL-28 melanoma
SF-539 CNS = tested on: SF-539 CNS
NCI-H460 lung = tested on: NCI-H460 lung
MDA-MB-435 = tested on: MDA-MB-435
IGROV1 ovarian = tested on: IGROV1 ovarian
SF-295 CNS = tested on: SF-295 CNS
MALME-3M melanoma = tested on: MALME-3M melanoma
EKVX NSCLC = tested on: EKVX NSCLC

O=C1CCC(N2C(=O)c3cccc(NCCCC4CCN(CCNC(=O)c5cc6c(o5)C(=O)c5ccccc5C6=O)CC4)c3C2=O)C(=O)N1 (stereo not drawn)
GI50 (SK-MEL-28 melanoma): 1.88 µM | TGI (SK-MEL-28 melanoma): 4.57 µM | GI50 (SF-539 CNS): 1.32 µM | TGI (SF-539 CNS): 2.59 µM | GI50 (NCI-H460 lung): 0.249 µM | TGI (NCI-H460 lung): 0.609 µM | GI50 (MDA-MB-435): 0.182 µM | TGI (MDA-MB-435): 0.335 µM | GI50 (IGROV1 ovarian): 0.576 µM | TGI (IGROV1 ovarian): 2.3 µM | GI50 (SF-295 CNS): 0.252 µM | TGI (SF-295 CNS): 0.711 µM | GI50 (MALME-3M melanoma): 0.14 µM | TGI (MALME-3M melanoma): 0.284 µM | GI50 (EKVX NSCLC): 1.5 µM | TGI (EKVX NSCLC): 3.34 µM

CN(c1ccc(C#N)c(Cl)c1)C1CCC(NC(=O)c2ccc(N3CCN(C4CN(c5ccc6c(c5)C(=O)N(C5CCC(=O)NC5=O)C6=O)C4)CC3)cc2)CC1 (stereo not drawn)
GI50 (SK-MEL-28 melanoma): > 100 µM | TGI (SK-MEL-28 melanoma): > 100 µM | GI50 (SF-539 CNS): > 100 µM | TGI (SF-539 CNS): > 100 µM | GI50 (NCI-H460 lung): > 100 µM | TGI (NCI-H460 lung): > 100 µM | GI50 (MDA-MB-435): > 100 µM | TGI (MDA-MB-435): > 100 µM | GI50 (IGROV1 ovarian): > 100 µM | TGI (IGROV1 ovarian): > 100 µM | GI50 (SF-295 CNS): > 100 µM | TGI (SF-295 CNS): > 100 µM | GI50 (MALME-3M melanoma): 48.8 µM | TGI (MALME-3M melanoma): > 100 µM | GI50 (EKVX NSCLC): > 100 µM | TGI (EKVX NSCLC): > 100 µM

CCN(CC)C(=S)SSC(=S)N(CC)CC
GI50 (SK-MEL-28 melanoma): 15.8 µM and 26.8 µM | TGI (SK-MEL-28 melanoma): 35.4 µM and 97.5 µM | GI50 (SF-539 CNS): 18.8 µM and 17.9 µM | TGI (SF-539 CNS): 38.6 µM and 37.1 µM | GI50 (NCI-H460 lung): 23.8 µM and 17.4 µM | TGI (NCI-H460 lung): 84.2 µM and 66.4 µM | GI50 (MDA-MB-435): 15.6 µM and 18.7 µM | TGI (MDA-MB-435): 43.5 µM and 53.3 µM | GI50 (IGROV1 ovarian): 142 µM | TGI (IGROV1 ovarian): 543 µM | GI50 (SF-295 CNS): 11.4 µM and 50.8 µM | TGI (SF-295 CNS): > 50.2 µM and 278 µM | GI50 (MALME-3M melanoma): 18 µM and 21 µM | TGI (MALME-3M melanoma): 37.5 µM and 50 µM | GI50 (EKVX NSCLC): 25.7 µM and 25.6 µM | TGI (EKVX NSCLC): 84.6 µM and 73.3 µM

NS(=O)(=O)c1cccc(-c2ccc3c(NC(=O)C4CC4)n[nH]c3c2)c1
GI50 (SK-MEL-28 melanoma): 15.7 µM | TGI (SK-MEL-28 melanoma): > 25 µM | GI50 (SF-539 CNS): 14.3 µM | TGI (SF-539 CNS): > 25 µM | GI50 (NCI-H460 lung): > 16.4 µM | TGI (NCI-H460 lung): > 25 µM | GI50 (MDA-MB-435): 5.31 µM | TGI (MDA-MB-435): 15.3 µM | GI50 (IGROV1 ovarian): > 25 µM | TGI (IGROV1 ovarian): > 25 µM | GI50 (SF-295 CNS): > 25 µM | TGI (SF-295 CNS): > 25 µM | GI50 (MALME-3M melanoma): > 19.8 µM | TGI (MALME-3M melanoma): > 25 µM | GI50 (EKVX NSCLC): > 25 µM | TGI (EKVX NSCLC): > 25 µM

C=CCn1c(=O)c2cnc(Nc3ccc(N4CCN(C)CC4)cc3)nc2n1-c1cccc(C(C)(C)O)n1
GI50 (SK-MEL-28 melanoma): 4.61 µM and 4.37 µM | TGI (SK-MEL-28 melanoma): 20.6 µM and > 10 µM | GI50 (SF-539 CNS): 0.161 µM and 0.287 µM | TGI (SF-539 CNS): 2.3 µM and 1.15 µM | GI50 (NCI-H460 lung): 1.56 µM and 0.996 µM | TGI (NCI-H460 lung): 14.1 µM and > 10 µM | GI50 (MDA-MB-435): 0.201 µM and 0.247 µM | TGI (MDA-MB-435): 0.561 µM and 0.666 µM | GI50 (IGROV1 ovarian): 0.184 µM and 0.225 µM | TGI (IGROV1 ovarian): 15.5 µM and > 5.26 µM | GI50 (SF-295 CNS): 0.48 µM and 0.589 µM | TGI (SF-295 CNS): 14.4 µM and > 10 µM | GI50 (MALME-3M melanoma): 1.73 µM and 0.593 µM | TGI (MALME-3M melanoma): 18.4 µM and > 10 µM | GI50 (EKVX NSCLC): 0.97 µM and 1.36 µM | TGI (EKVX NSCLC): 30.1 µM and > 10 µM

O=C1CSC(c2ccccc2O)N1c1nnc(Cn2ccnc2)o1 (stereo not drawn)
GI50 (SK-MEL-28 melanoma): 13.8 µM | TGI (SK-MEL-28 melanoma): 41.2 µM | GI50 (SF-539 CNS): 8.83 µM | TGI (SF-539 CNS): 68.5 µM | GI50 (NCI-H460 lung): 4.76 µM | TGI (NCI-H460 lung): > 100 µM | GI50 (MDA-MB-435): 2.35 µM | TGI (MDA-MB-435): 8.55 µM | GI50 (IGROV1 ovarian): 16 µM | TGI (IGROV1 ovarian): 37 µM | GI50 (SF-295 CNS): 3.11 µM | TGI (SF-295 CNS): > 100 µM | GI50 (MALME-3M melanoma): 4.43 µM | TGI (MALME-3M melanoma): 26.2 µM | GI50 (EKVX NSCLC): 3.5 µM | TGI (EKVX NSCLC): 20 µM

O=c1c(-c2ccccc2)coc2cc(OC/C(=N/O)c3ccc(F)cc3)ccc12
GI50 (SK-MEL-28 melanoma): 19.2 µM | TGI (SK-MEL-28 melanoma): > 100 µM | GI50 (SF-539 CNS): 15.2 µM | TGI (SF-539 CNS): 29.6 µM | GI50 (NCI-H460 lung): 17.4 µM | TGI (NCI-H460 lung): 38.2 µM | GI50 (MDA-MB-435): 20.9 µM | TGI (MDA-MB-435): 97.7 µM | GI50 (IGROV1 ovarian): 19.9 µM | TGI (IGROV1 ovarian): > 100 µM | GI50 (SF-295 CNS): 25.5 µM | TGI (SF-295 CNS): 82.4 µM | GI50 (MALME-3M melanoma): 10.1 µM | TGI (MALME-3M melanoma): 31.9 µM | GI50 (EKVX NSCLC): 8.59 µM | TGI (EKVX NSCLC): 26.1 µM

Nc1cc2cccc[n+]2c2cccc(Cl)c12
GI50 (SK-MEL-28 melanoma): 17 µM | TGI (SK-MEL-28 melanoma): 41.7 µM | GI50 (SF-539 CNS): 23 µM | TGI (SF-539 CNS): 71.2 µM | GI50 (NCI-H460 lung): 20.2 µM | TGI (NCI-H460 lung): 58.7 µM | GI50 (MDA-MB-435): 25.8 µM | TGI (MDA-MB-435): 72.2 µM | GI50 (IGROV1 ovarian): 69.9 µM | GI50 (SF-295 CNS): 33.4 µM | GI50 (MALME-3M melanoma): 3.21 µM | TGI (MALME-3M melanoma): 13.5 µM | GI50 (EKVX NSCLC): 32.1 µM

NNc1c2ccccc2nc2ccccc12
GI50 (SK-MEL-28 melanoma): 10.7 µM | TGI (SK-MEL-28 melanoma): 60.7 µM | GI50 (SF-539 CNS): 3.73 µM | TGI (SF-539 CNS): 22.9 µM | GI50 (NCI-H460 lung): 2.48 µM | TGI (NCI-H460 lung): 15.5 µM | GI50 (MDA-MB-435): 5.08 µM | TGI (MDA-MB-435): 23.4 µM | GI50 (IGROV1 ovarian): 3.07 µM | TGI (IGROV1 ovarian): 20.8 µM | GI50 (SF-295 CNS): 1.88 µM | TGI (SF-295 CNS): 14.9 µM | GI50 (MALME-3M melanoma): 5.03 µM | TGI (MALME-3M melanoma): 36.1 µM | GI50 (EKVX NSCLC): 1.89 µM | TGI (EKVX NSCLC): 26.8 µM

CC(=O)OC(C)C(OC(C)=O)C(OC(C)=O)C(/C=C/C1CC=CC(=O)O1)OC(C)=O (stereo not drawn)
GI50 (SK-MEL-28 melanoma): 16.8 µM | TGI (SK-MEL-28 melanoma): 46.6 µM | GI50 (SF-539 CNS): 21.5 µM | TGI (SF-539 CNS): 43.5 µM | GI50 (NCI-H460 lung): 32.7 µM | TGI (NCI-H460 lung): > 100 µM | GI50 (MDA-MB-435): 37.6 µM | TGI (MDA-MB-435): > 100 µM | GI50 (IGROV1 ovarian): 32 µM | TGI (IGROV1 ovarian): > 100 µM | GI50 (SF-295 CNS): 51 µM | TGI (SF-295 CNS): > 100 µM | GI50 (MALME-3M melanoma): 36.5 µM | TGI (MALME-3M melanoma): > 100 µM | GI50 (EKVX NSCLC): 39.6 µM | TGI (EKVX NSCLC): > 100 µM

O=C(Nc1cnc(C(F)(F)F)cn1)c1cc(Cl)ccc1O
GI50 (SK-MEL-28 melanoma): 0.257 µM | TGI (SK-MEL-28 melanoma): 2.2 µM | GI50 (SF-539 CNS): 0.294 µM | TGI (SF-539 CNS): 7.91 µM | GI50 (NCI-H460 lung): 0.332 µM | TGI (NCI-H460 lung): 15.2 µM | GI50 (MDA-MB-435): 0.318 µM | TGI (MDA-MB-435): 3.23 µM | GI50 (IGROV1 ovarian): 0.374 µM | TGI (IGROV1 ovarian): > 100 µM | GI50 (SF-295 CNS): 0.255 µM | TGI (SF-295 CNS): 0.675 µM | GI50 (MALME-3M melanoma): 0.197 µM | TGI (MALME-3M melanoma): 0.565 µM | GI50 (EKVX NSCLC): 0.228 µM

O=c1cccc(C#CC#CCCCO)o1
GI50 (SK-MEL-28 melanoma): 5.85 µM | TGI (SK-MEL-28 melanoma): 22.2 µM | GI50 (SF-539 CNS): 4.6 µM | TGI (SF-539 CNS): > 43.5 µM | GI50 (NCI-H460 lung): 9.55 µM | TGI (NCI-H460 lung): 33.6 µM | GI50 (MDA-MB-435): 4.99 µM | TGI (MDA-MB-435): 13.6 µM | GI50 (IGROV1 ovarian): 2.65 µM | TGI (IGROV1 ovarian): > 22.1 µM | GI50 (SF-295 CNS): 13.5 µM | TGI (SF-295 CNS): 28.9 µM | GI50 (MALME-3M melanoma): 0.788 µM | TGI (MALME-3M melanoma): 3.78 µM | GI50 (EKVX NSCLC): 3 µM | TGI (EKVX NSCLC): 7.6 µM
